Assay results taken from patent US20170107207A1, “AMINOPYRAZOLONE DERIVATIVE” (DAIICHI SANKYO COMPANY, LIMITED, priority 2014, published 2017).

Assays:
RAMOS = assay: Cell growth inhibition test, RAMOS; type: cell-based; conditions: Homo sapiens, 72 h, Lymphoma, 3 days, CellTiter-Glo
Experimental: (§1) A cell growth inhibition test was carried out by treating a cultured cancer cell line with a test compound for a given period and then counting the number of viable cells by CellTiter-Glo Luminescent Cell Viability Assay (manufactured by Promega Corp.).
(§2) The following cells were inoculated to a 384-well plate containing the compound prepared in advance at predetermined concentrations. […]
(§3) The cells thus inoculated were cultured at 37° C. for 3 days under 5% CO2. […] Then, luminescence intensity was measured using a plate reader.
(§4) The number of viable cells and luminescence intensity have been confirmed to correlate with each other. Therefore, the rate of cell growth was calculated according to the following expression: Rate of cell growth (T/C %) of a test compound-supplemented well=100×[(B−C)/(A−C)] wherein A represents the luminescence intensity (final culture date) of a test compound-free well; B represents the luminescence intensity (final culture date) of a test compound-containing well; and C represents the luminescence intensity (day of cell inoculation) of a well at the start of contact of the cells with the test compound.
(§5) T/C % at the concentration of each of the serially diluted test compounds was determined. […]

KASUMI-1 = assay: Cell growth inhibition test, KASUMI-1; type: cell-based; conditions: Homo sapiens, 72 h; KASUMI-1, Leukemia, 3 days, CellTiter-Glo
Experimental: as §1, §2, §3, §4, §5

SK-MEL-28 = assay: Cell growth inhibition test, SK-MEL-28; type: cell-based; conditions: Homo sapiens, 72 h; SK-MEL-28, Skin cancer, 3 days, CellTiter-Glo
Experimental: as §1, §2, §3, §4, §5

FaDu = assay: Cell growth inhibition test, FaDu; type: cell-based; conditions: Homo sapiens, 72 h, Head and neck cancer, 3 days, CellTiter-Glo
Experimental: as §1, §2, §3, §4, §5

SW620 = assay: Cell growth inhibition test, SW620; type: cell-based; conditions: Homo sapiens, SW-620, 72 h; SW620, Large intestine cancer, 3 days, CellTiter-Glo
Experimental: as §1, §2, §3, §4, §5

SK-OV-3 = assay: Cell growth inhibition test, SK-OV-3; type: cell-based; conditions: Homo sapiens, 72 h; SK-OV-3, Ovary cancer, 3 days, CellTiter-Glo
Experimental: as §1, §2, §3, §4, §5

NCI-H1975 = assay: Cell growth inhibition test, NCI-H1975; type: cell-based; conditions: Homo sapiens, 72 h; NCI-H1975, Lung cancer, 3 days, CellTiter-Glo
Experimental: as §1, §2, §3, §4, §5

A-431 = assay: Cell growth inhibition test, A-431; type: cell-based; conditions: Homo sapiens, 72 h; A-431, Skin cancer, 3 days, CellTiter-Glo
Experimental: as §1, §2, §3, §4, §5

RPMI 8226 = assay: Cell growth inhibition test, RPMI 8226; type: cell-based; conditions: Homo sapiens, 72 h; RPMI 8226, Multiple myeloma, 3 days, CellTiter-Glo
Experimental: as §1, §2, §3, §4, §5

HT-1080 = assay: Cell growth inhibition test, HT-1080; type: cell-based; conditions: Homo sapiens, 72 h; HT-1080, Bone and soft tissue tumor, 3 days, CellTiter-Glo
Experimental: as §1, §2, §3, §4, §5

NCI-H460 = assay: Cell growth inhibition test, NCI-H460; type: cell-based; conditions: Homo sapiens, 72 h; NCI-H460, Lung cancer, 3 days, CellTiter-Glo
Experimental: as §1, §2, §3, §4, §5

[1] = tested on: Lung cancer cell line COR-L23 cells; assay: Antitumor test, mouse subcutaneous transplantation model, COR-L23; type: in vivo; conditions: COR-L23 in nude mice, 4 consecutive days, tumor measured next day
Text: In vivo test of test compound: Antitumor test using mouse subcutaneous transplantation model
Lung cancer cell line COR-L23 cells were dissociated from a culture flask by trypsin treatment, then suspended in an RPMI1640 medium containing 10% FBS, and then centrifuged to remove the supernatant. The cells were washed with this medium twice and then suspended in PBS. The cell suspension was subcutaneously transplanted at a dose of 5×10^6 cells/mouse to the right axillary regions of 6-week-old nude mice (BALB/cAJc1-nu/nu, CLEA Japan, Inc.). The test was conducted by using cancer-bearing mice having an estimated tumor volume (major axis×minor axis×minor axis/2) of 100 to 150 mm3 and grouping the cancer-bearing mice without significant difference in average estimated tumor volume from a negative control group. The compound of Example 113 was suspended in solvent (EtOH/DMA/Solutol HS-15/PEG400/5% HMPC). The suspension was orally administered to each mouse once a day (QD) at a dose of 75, 150, or 300 mg/kg for 4 consecutive days. On the next day, the tumor sizes were measured.
The rate of tumor growth inhibition was also calculated in this test according to the following expression and is shown in a table.
Rate of tumor growth inhibition (%)=100−(Average value of the tumor volumes of the test compound administration group)/(Average value of the tumor volumes of the vehicle administration group)×100.

| SMILES | GI50 (RAMOS) [nM] | GI50 (KASUMI-1) [nM] | GI50 (SK-MEL-28) [nM] | GI50 (FaDu) [nM] | GI50 (SW620) [nM] | GI50 (SK-OV-3) [nM] | GI50 (NCI-H1975) [nM] | GI50 (A-431) [nM] | GI50 (RPMI 8226) [nM] | GI50 (HT-1080) [nM] | GI50 (NCI-H460) [nM] | Rate of tumor growth inhibition (%) ([1]; 75 mg/kg orally QD) | Rate of tumor growth inhibition (%) ([1]; 150 mg/kg orally QD) | Rate of tumor growth inhibition (%) ([1]; 300 mg/kg orally QD) |
| --- | --- | --- | --- | --- | --- | --- | --- | --- | --- | --- | --- | --- | --- | --- |
| CCOc1ccc(Cl)cc1C(=O)NCC(C)(C)CC(=O)Nc1c([C@H](C)CN(C)C)n(C)n(-c2ccccc2)c1=O [Example 68, 5-Chloro-N-[4-({5-[(1R)-2-(dimethylamino)-1-methylethyl]-1-methyl-3-oxo-2-phenyl-2,3-dihydro-1H-pyrazol-4-yl}amino)-2,2-dimethyl-4-oxobutyl]-2-ethoxybenzamide] | 130 | 140 | 590 | 210 | 840 | 510 | 490 | 210 | 140 | 220 | 310 | – | – | – |
| CCOc1cc(F)c(Cl)cc1C(=O)NCC(C)(C)CC(=O)Nc1c(COC)n(C)n(-c2ccccc2)c1=O [Example 113, 5-Chloro-2-ethoxy-4-fluoro-N-(4-{[5-(methoxymethyl)-1-methyl-3-oxo-2-phenyl-2,3-dihydro-1H-pyrazol-4-yl]amino}-2,2-dimethyl-4-oxobutyl)benzamide] | 160 | 230 | 800 | 350 | 910 | 700 | 810 | 390 | 160 | 350 | 550 | 39 | 52 | 81 |
| CCOc1ncc(Cl)cc1C(=O)NCC(C)(C)CC(=O)Nc1c([C@H](C)CN(C)C)n(C)n(-c2ccccc2)c1=O [Example 73, 5-Chloro-N-[4-({5-[(1R)-2-(dimethylamino)-1-methylethyl]-1-methyl-3-oxo-2-phenyl-2,3-dihydro-1H-pyrazol-4-yl}amino)-2,2-dimethyl-4-oxobutyl]-2-ethoxypyridine-3-carboxamide] | 220 | 240 | 920 | 460 | 1600 | 980 | 900 | 540 | 180 | 520 | 730 | – | – | – |
